Like-named read-outs stand apart in the source and are kept apart here.
How the values were obtained:
HDAC 6 = target: T1, HDAC 6 (Homo sapiens, UniProt Q9UBN7); experiment: HDAC enzyme fluorescence assay, HDAC 6; format: biochemical; conditions: recombinant HDAC enzyme, Boc-Lys(acetyl)-AMC
T1 sequence (Q9UBN7 1-1215): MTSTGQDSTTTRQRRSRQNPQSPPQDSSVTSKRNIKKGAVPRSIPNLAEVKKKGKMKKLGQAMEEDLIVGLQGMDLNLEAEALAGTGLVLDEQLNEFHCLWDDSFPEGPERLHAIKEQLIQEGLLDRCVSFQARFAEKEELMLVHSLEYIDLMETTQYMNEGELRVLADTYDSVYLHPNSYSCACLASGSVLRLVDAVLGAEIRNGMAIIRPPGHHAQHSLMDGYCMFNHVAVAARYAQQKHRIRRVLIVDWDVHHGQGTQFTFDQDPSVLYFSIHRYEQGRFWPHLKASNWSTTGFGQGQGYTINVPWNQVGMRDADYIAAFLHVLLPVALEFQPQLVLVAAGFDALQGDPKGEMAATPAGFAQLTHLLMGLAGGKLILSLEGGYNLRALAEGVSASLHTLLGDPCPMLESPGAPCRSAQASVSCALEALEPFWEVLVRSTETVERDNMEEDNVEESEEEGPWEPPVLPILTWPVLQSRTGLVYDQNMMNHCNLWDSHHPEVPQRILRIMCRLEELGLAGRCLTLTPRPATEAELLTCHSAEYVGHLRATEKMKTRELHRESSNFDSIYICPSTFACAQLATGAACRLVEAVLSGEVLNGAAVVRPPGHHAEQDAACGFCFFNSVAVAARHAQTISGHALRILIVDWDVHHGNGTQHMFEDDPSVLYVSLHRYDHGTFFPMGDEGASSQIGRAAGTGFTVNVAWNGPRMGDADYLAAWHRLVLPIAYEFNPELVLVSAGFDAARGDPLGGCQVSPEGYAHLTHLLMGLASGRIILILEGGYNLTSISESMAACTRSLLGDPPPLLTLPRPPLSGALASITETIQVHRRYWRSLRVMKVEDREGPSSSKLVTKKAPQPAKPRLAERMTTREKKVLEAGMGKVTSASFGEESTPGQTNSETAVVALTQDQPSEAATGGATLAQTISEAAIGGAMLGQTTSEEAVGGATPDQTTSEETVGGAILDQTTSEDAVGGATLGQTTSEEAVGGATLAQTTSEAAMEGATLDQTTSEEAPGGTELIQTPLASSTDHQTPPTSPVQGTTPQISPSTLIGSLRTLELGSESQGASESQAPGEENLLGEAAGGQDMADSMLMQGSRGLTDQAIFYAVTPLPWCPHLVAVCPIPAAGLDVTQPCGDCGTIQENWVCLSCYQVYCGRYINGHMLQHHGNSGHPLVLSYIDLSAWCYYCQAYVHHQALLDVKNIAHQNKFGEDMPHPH
Procedure: Particularly, HDAC enzyme analysis was performed based on a uniform fluorescence emission assay. First, the compounds of examples of the present invention or comparative example 1 were diluted at different concentrations, which were treated to the analysis buffer containing 25 mM HEPES (pH 8.0), 137 mM NaCl, 1 mM MgCl2 and 2.7 mM KCL, followed by culture of the recombinant HDAC enzyme. 10 minutes later, Boc-Lys(acetyl)-AMC, the fluorescence inducing substrate, was added thereto, followed by further culture at 37° C. At this time, the concentration of the fluorescence inducing substrate and the culture time were adjusted according to the isotypes of the HDAC enzyme. The reaction was terminated by treating trypsin at room temperature for 20 minutes. The fluorescence intensity was measured using a fluorescence analyzer at an excitation wavelength of 380 nm and an emission wavelength of 460 nm, respectively. The inhibition rate was calculated from the measured fluorescence intensity of each well with comparing to that of the control well. IC50 of the compound was calculated by analyzing the dose-reaction inhibition curve.

HDAC 8 = target: T2, HDAC 8 (Homo sapiens, UniProt Q9BY41); experiment: HDAC enzyme fluorescence assay, HDAC 8; format: biochemical; set-up: Inhibitory activity (%) HDAC 8: concentration or dose not given beside the values; conditions: for Inhibitory activity (%) HDAC 8: (HDAC inhibitory activity of example compound/HDAC inhibitory activity of SAHA) × 100
T2 sequence (Q9BY41 1-377): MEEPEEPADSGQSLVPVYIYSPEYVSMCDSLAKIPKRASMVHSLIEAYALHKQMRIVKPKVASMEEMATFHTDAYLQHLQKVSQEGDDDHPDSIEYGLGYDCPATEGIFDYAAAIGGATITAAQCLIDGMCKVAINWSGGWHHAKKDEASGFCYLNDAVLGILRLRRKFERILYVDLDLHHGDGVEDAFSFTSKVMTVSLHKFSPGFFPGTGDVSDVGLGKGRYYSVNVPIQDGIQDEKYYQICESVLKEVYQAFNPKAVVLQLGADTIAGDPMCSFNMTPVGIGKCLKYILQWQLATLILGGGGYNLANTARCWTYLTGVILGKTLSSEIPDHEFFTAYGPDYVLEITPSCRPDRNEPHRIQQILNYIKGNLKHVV
Method in brief: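 Recombinant HDAC8 preincubated 10 min with compound in 25 mM HEPES pH 8.0, 137 mM NaCl, 1 mM MgCl2, 2.7 mM KCl, then Boc-Lys(acetyl)-AMC added at 37° C (level and time set per isoform). Trypsin development 20 min at room temperature, fluorescence 380/460 nm; activity expressed as percent relative to SAHA reference.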

COc1ccc([S+]([O-])C/C=C\SSCc2ccccc2)cc1 (stereo not drawn) [Example 32, (Z)-1-benzyl-2-(3-(4-methoxyphenylsulfinyl)prop-1-enyl)disulfane]
IC50 (HDAC 6): 550 nM
Inhibitory activity (%) HDAC 8 (HDAC 8): 150.4%
IC50 (HDAC 8; recombinant HDAC enzyme, Boc-Lys(acetyl)-AMC, read-out: IC50 HDAC 8): 37 nM

CCCSS/C=C\C[S+]([O-])c1cccc(OC)c1 (stereo not drawn) [Example 18, (Z)-1-(3-(3-methoxyphenylsulfinyl)prop-1-enyl)-2-propyldisulfane]
IC50 (HDAC 6): 1100 nM
Inhibitory activity (%) HDAC 8 (HDAC 8): 147.2%
IC50 (HDAC 8; read-out: IC50 against HDAC 8): 35 nM
